Assays:
Type in all cases: functional
Helicoverpa zea [1] = assay: Antifeedant activity against third-instar larval stage of Helicoverpa zea (corn earworm) infested compound-treated leaf assessed as reduction in feeding damage at 187 mg a.i/L after 48 hr by leaf disk assay relative to untreated control; parameters: scale not given: the % may be the effect or the level left
Spodoptera exigua [2] = assay: Antifeedant activity against third-instar larval stage of Spodoptera exigua infested compound-treated leaf assessed as reduction in feeding damage at 187 mg a.i/L after 48 hr by leaf disk assay relative to untreated control; parameters: scale not given: the % may be the effect or the level left
Trichoplusia ni [3] = assay: Antifeedant activity against third-instar larval stage of Trichoplusia ni (cabbage looper) infested compound-treated leaf assessed as reduction in feeding damage at 187 mg a.i/L after 48 hr by leaf disk assay relative to untreated control; parameters: scale not given: the % may be the effect or the level left
Spodoptera exigua [4] = assay: Antifeedant activity against third-instar larval stage of Spodoptera exigua infested compound-treated leaf assessed as time required to stop feeding at 187 mg a.i/L after 48 hr by leaf disk assay (reference value: > 2880 min)
Helicoverpa zea [5] = assay: Antifeedant activity against third-instar larval stage of Helicoverpa zea (corn earworm) infested compound-treated leaf assessed as time required to stop feeding at 187 mg a.i/L after 48 hr by leaf disk assay (reference value: > 2880 min)
Trichoplusia ni [6] = assay: Antifeedant activity against third-instar larval stage of Trichoplusia ni (cabbage looper) infested compound-treated leaf assessed as time required to stop feeding at 187 mg a.i/L after 48 hr by leaf disk assay (reference value: > 2880 min)
Helicoverpa zea [7] = assay: Antifeedant activity against third-instar larval stage of Helicoverpa zea (corn earworm) infested compound-treated leaf assessed as reduction in feeding damage at 167 mg a.i/L after 48 hr by leaf disk assay relative to untreated control; parameters: scale not given: the % may be the effect or the level left
Trichoplusia ni [8] = assay: Antifeedant activity against third-instar larval stage of Trichoplusia ni (cabbage looper) infested compound-treated leaf assessed as time required to stop feeding at 167 mg a.i/L after 48 hr by leaf disk assay (reference value: > 2880 min)
Trichoplusia ni [9] = assay: Antifeedant activity against third-instar larval stage of Trichoplusia ni (cabbage looper) infested compound-treated leaf assessed as reduction in feeding damage at 167 mg a.i/L after 48 hr by leaf disk assay relative to untreated control; parameters: scale not given: the % may be the effect or the level left
Spodoptera exigua [10] = assay: Antifeedant activity against third-instar larval stage of Spodoptera exigua infested compound-treated leaf assessed as reduction in feeding damage at 167 mg a.i/L after 48 hr by leaf disk assay relative to untreated control; parameters: scale not given: the % may be the effect or the level left
Plutella xylostella [11] = assay: Antifeedant activity against third-instar larval stage of Plutella xylostella (diamondback moth) infested compound-treated leaf assessed as time required to stop feeding at 167 mg a.i/L after 48 hr by leaf disk assay (reference value: > 2880 min)
Helicoverpa zea [12] = assay: Antifeedant activity against third-instar larval stage of Helicoverpa zea (corn earworm) infested compound-treated leaf assessed as time required to stop feeding at 167 mg a.i/L after 48 hr by leaf disk assay (reference value: > 2880 min)
Plutella xylostella [13] = assay: Antifeedant activity against third-instar larval stage of Plutella xylostella (diamondback moth) infested compound-treated leaf assessed as reduction in feeding damage at 167 mg a.i/L after 48 hr by leaf disk assay relative to untreated control; parameters: scale not given: the % may be the effect or the level left
Spodoptera exigua [14] = assay: Antifeedant activity against third-instar larval stage of Spodoptera exigua infested compound-treated leaf assessed as time required to stop feeding at 167 mg a.i/L after 48 hr by leaf disk assay (reference value: > 2880 min)
Helicoverpa zea [15] = assay: Antifeedant activity against third-instar larval stage of Helicoverpa zea (corn earworm) infested compound-treated leaf assessed as time required to stop feeding at 40 mg a.i/L after 48 hr by leaf disk assay (reference value: > 2880 min)
Trichoplusia ni [16] = assay: Antifeedant activity against third-instar larval stage of Trichoplusia ni (cabbage looper) infested compound-treated leaf assessed as time required to stop feeding at 40 mg a.i/L after 48 hr by leaf disk assay (reference value: > 2880 min)
Spodoptera exigua [17] = assay: Antifeedant activity against third-instar larval stage of Spodoptera exigua infested compound-treated leaf assessed as time required to stop feeding at 40 mg a.i/L after 48 hr by leaf disk assay (reference value: > 2880 min)
Trichoplusia ni [18] = assay: Antifeedant activity against third-instar larval stage of Trichoplusia ni (cabbage looper) infested compound-treated leaf assessed as reduction in feeding damage at 40 mg a.i/L after 48 hr by leaf disk assay relative to untreated control; parameters: scale not given: the % may be the effect or the level left
Spodoptera exigua [19] = assay: Antifeedant activity against third-instar larval stage of Spodoptera exigua infested compound-treated leaf assessed as reduction in feeding damage at 40 mg a.i/L after 48 hr by leaf disk assay relative to untreated control; parameters: scale not given: the % may be the effect or the level left
Helicoverpa zea [20] = assay: Antifeedant activity against third-instar larval stage of Helicoverpa zea (corn earworm) infested compound-treated leaf assessed as reduction in feeding damage at 40 mg a.i/L after 48 hr by leaf disk assay relative to untreated control; parameters: scale not given: the % may be the effect or the level left
Plutella xylostella [21] = assay: Antifeedant activity against third-instar larval stage of Plutella xylostella (diamondback moth) infested compound-treated leaf assessed as time required to stop feeding at 40 mg a.i/L after 48 hr by leaf disk assay (reference value: > 2880 min)
Plutella xylostella [22] = assay: Antifeedant activity against third-instar larval stage of Plutella xylostella (diamondback moth) infested compound-treated leaf assessed as reduction in feeding damage at 40 mg a.i/L after 48 hr by leaf disk assay relative to untreated control; parameters: scale not given: the % may be the effect or the level left

How did the Activity (Helicoverpa zea [1]) turn out when `CC(C)[C@H](C(=O)O[C@H](C#N)c1cccc(Oc2ccccc2)c1)c1ccc(Cl)cc1` was run?
The Activity was 99.9%.

And the Activity (Spodoptera exigua [2])?
The Activity was 99.9%.

What about the Activity (Trichoplusia ni [3]) of the same compound?
The Activity was 99.9%.

And the Time (Spodoptera exigua [4])?
Its Time is 6.4 min.

What about the Time (Helicoverpa zea [5]) of the same compound?
The Time was 3.4 min.

And the Time (Trichoplusia ni [6])?
The Time was 5 min.

With `CNC(=O)c1cc(Cl)cc(C)c1NC(=O)c1cc(Br)nn1-c1ncccc1Cl` [CHLORANTRANILIPROLE] as the compound, how does the Activity (Helicoverpa zea [7]) read?
The Activity was 99.2%.

And the Time (Trichoplusia ni [8])?
The Time was 23.4 min.

What about the Activity (Trichoplusia ni [9]) of the same compound?
Its Activity is 99.4%.

And the Activity (Spodoptera exigua [10])?
The Activity was 99%.

And the Time (Plutella xylostella [11])?
The Time was 15.4 min.

What about the Time (Helicoverpa zea [12]) of the same compound?
Its Time is 20.3 min.

And the Activity (Plutella xylostella [13])?
Its Activity is 99.4%.

What about the Time (Spodoptera exigua [14]) of the same compound?
The Time was 25.3 min.

Which Time (Helicoverpa zea [15]) does the source give for `CC[C@H](C)C1O[C@]2(C=C[C@@H]1C)C[C@@H]1C[C@@H](C/C=C(\C)[C@@H](O[C@H]3C[C@H](OC)[C@@H](O[C@H]4C[C@H](OC)[C@H](NC)[C@H](C)O4)[C@H](C)O3)[C@@H](C)/C=C/C=C3\CO[C@@H]4[C@H](O)C(C)=C[C@@H](C(=O)O1)[C@]34O)O2.O=C(O)c1ccccc1` (some centres not stated) [EMAMECTIN BENZOATE] here?
The Time was 151.8 min.

What about the Time (Trichoplusia ni [16]) of the same compound?
Its Time is 91.9 min.

And the Time (Spodoptera exigua [17])?
The Time was 139 min.

What about the Activity (Trichoplusia ni [18]) of the same compound?
Its Activity is 95.7%.

What about the Activity (Spodoptera exigua [19]) of the same compound?
Its Activity is 92.4%.

What about the Activity (Helicoverpa zea [20]) of the same compound?
The Activity was 93.9%.

And the Time (Plutella xylostella [21])?
The Time was 55.9 min.

What about the Activity (Plutella xylostella [22]) of the same compound?
The Activity was 97.9%.

Reference: ChEMBL document CHEMBL3044623, “Feeding cessation effects of chlorantraniliprole, a new anthranilic diamide insecticide, in comparison with several insecticides in distinct chemical classes and mode-of-action groups” (2009)
